Source: PMC4671318 (Proteins, 2012)

Molecular target: human aldose reductase (AR) (Homo sapiens, UniProt P15121)
Assay: X-ray crystallography
Type: biochemical

In the case of `O=C(O)COc1cc(F)ccc1C(=S)NCc1ccc(Br)cc1F` [compound 594, IDD594], the IC50 is reported as 124 ± 10 nM.
